In article PMC6934184, “Selective DNA-PKcs inhibition extends the therapeutic index of localized radiotherapy and chemotherapy” (The Journal of Clinical Investigation, 2019) one finds inhibition data, which are given here for one compound.

The assay addresses T1, CLK2 (Homo sapiens, UniProt P49760).
T1 construct: purchased Thermo Fisher Scientific (Life Technologies) SelectScreen
In words: SelectScreen Z'LYTE. The format is biochemical. In short, it runs like this:
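NU5455 was profiled across the SelectScreen Broad panel of kinase activity and binding assays. Z'LYTE reactions such as CSF1R ran at apparent Km ATP, while the Adapta CAMK1 assay used ATP listed as 10. Values are given as percent.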

By inhibition is commonly meant the relative decrease from the control value, in per cent. A low value points to a weak effect.

T1 sequence (P49760 whole entry): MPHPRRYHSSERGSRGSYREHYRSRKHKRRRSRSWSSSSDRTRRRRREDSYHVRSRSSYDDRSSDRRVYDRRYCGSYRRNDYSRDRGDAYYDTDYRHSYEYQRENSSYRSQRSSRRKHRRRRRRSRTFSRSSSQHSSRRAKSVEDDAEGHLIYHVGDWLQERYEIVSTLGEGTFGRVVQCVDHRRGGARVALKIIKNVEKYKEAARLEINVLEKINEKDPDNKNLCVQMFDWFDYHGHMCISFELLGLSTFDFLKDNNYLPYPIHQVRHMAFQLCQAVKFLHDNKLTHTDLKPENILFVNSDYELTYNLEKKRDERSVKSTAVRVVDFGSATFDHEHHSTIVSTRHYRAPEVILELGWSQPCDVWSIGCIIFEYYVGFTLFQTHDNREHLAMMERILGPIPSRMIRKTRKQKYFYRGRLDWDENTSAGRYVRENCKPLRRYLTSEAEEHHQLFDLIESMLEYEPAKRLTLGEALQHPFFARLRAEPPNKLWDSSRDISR

In turn, `CN(C(=O)CN1CCOCC1)c1ccc2sc3c(-c4cccc5c(=O)cc(N6CC7CCC(C6)O7)oc45)cccc3c2c1` [NU5455] yielded an inhibition at 1 µM of 4.1%.
